According to patent publication US6262073A, “Pharmaceutical methods of use of 5-substituted and 5,5 disubstituted-3,4-dihydroxy-2(5H)-furanones” (Oxis International Inc., priority 2000, dated 2001):

How the values were obtained:
NF-κB = NF-κB nuclear membrane translocation, EMSA, LPS-treated NR8383 cells; assay type: cell-based; conditions: Rattus norvegicus
Experimental: Experiments measuring test agents effect on NF-κB nuclear membrane translocation were performed with NR8383 cells, which are transformed rat alveolar macrophages. […] In addition, some compounds were tested at doses of 10 and 30 μM. Untreated control cells and cells treated with LPS alone were tested in each experiment. Cells were harvested 6 hours after treatment. Nuclear proteins were extracted, frozen and quantified using the Bradford assay. Electrophoretic mobility shift assays (EMSA) were subsequently analyzed using a radiolabeled NF-κB probe. Nuclear proteins were reacted with the radiolabeled probe, run on a 5% polyacrylamide gel, and subjected to autoradiography. Specificity of protein binding for the NF-κB binding site was assayed by cold and nonspecific competition using the LPS treated sample in each experiment. All EMSA were duplicated at least once to verify results. Laser densitometry of NF-κB bands was done on autoradiographs to quantify NF-κB binding activity.

[1] = biological target: T1, Cyclooxygenase-1 (cyclooxygenase from ram seminal vesicles) (Ovis aries, UniProt P05979); assay: Cyclooxygenase-1 screen (COX-1); assay type: biochemical; conditions: 300 μM
T1 construct: cyclooxygenase from ram seminal vesicles; from tissue; host or cells: ram seminal vesicles
T1 sequence (P05979 25-600): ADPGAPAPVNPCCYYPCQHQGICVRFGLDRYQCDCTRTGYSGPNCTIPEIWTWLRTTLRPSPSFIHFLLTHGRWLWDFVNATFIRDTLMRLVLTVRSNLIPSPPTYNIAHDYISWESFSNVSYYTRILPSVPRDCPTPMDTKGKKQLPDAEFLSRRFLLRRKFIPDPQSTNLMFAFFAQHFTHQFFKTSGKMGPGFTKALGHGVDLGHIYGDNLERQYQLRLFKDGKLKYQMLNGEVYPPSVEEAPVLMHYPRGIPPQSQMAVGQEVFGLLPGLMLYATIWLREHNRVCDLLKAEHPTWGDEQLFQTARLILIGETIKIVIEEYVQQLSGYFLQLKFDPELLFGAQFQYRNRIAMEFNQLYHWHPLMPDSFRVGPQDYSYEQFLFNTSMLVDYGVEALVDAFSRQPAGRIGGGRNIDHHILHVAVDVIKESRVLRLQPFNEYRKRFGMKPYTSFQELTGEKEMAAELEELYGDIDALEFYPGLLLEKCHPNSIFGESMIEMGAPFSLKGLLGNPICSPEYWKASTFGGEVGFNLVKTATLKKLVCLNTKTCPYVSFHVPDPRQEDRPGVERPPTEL
Experimental: (§1) The compounds of the invention were screened for their anti-inflammatory activity using a series of in vitro tests the details of which are given below. The activity of various compounds against 5-lipoxygenase, cycloxygenase-1, cycloxygenase-2 and lipid peroxidase was evaluated. Results of the screening procedures are included in TABLE I, and the activity against 5-lipoxygenase at a test concentration of 1 μM in Table II.
Cyclooxygenase-1 is involved in the formation of prostaglandins and thromboxane via the oxidative metabolism of arachidonic acid. Briefly, cyclooxygenase from ram seminal vesicles is incubated with arachidonic acid (100 μm) for 2 minutes at 37° C. in the presence or absence of test compounds according to the methods of A. T. Evans et al., Biochem. Pharm. 36:2035-2037(1987) and R. Boopathy et al., Biochem J. 239:371-377 (1968). The assay is terminated by the addition of trichioroacetic acid and cyclooxygenase activity is determined by reading the absorbance at 530 nm. […]

[2] = biological target: T2, Cyclooxygenase-2 (prostaglandin H synthetase-2) from sheep placenta (Ovis aries, UniProt P79208); assay: Cyclooxygenase-2 screen (COX-2); assay type: biochemical; conditions: read-out: COX-2 percent inhibition
T2 construct: cyclooxygenase-2 from sheep placenta; from tissue; host or cells: sheep placenta
T2 sequence (P79208 17-603): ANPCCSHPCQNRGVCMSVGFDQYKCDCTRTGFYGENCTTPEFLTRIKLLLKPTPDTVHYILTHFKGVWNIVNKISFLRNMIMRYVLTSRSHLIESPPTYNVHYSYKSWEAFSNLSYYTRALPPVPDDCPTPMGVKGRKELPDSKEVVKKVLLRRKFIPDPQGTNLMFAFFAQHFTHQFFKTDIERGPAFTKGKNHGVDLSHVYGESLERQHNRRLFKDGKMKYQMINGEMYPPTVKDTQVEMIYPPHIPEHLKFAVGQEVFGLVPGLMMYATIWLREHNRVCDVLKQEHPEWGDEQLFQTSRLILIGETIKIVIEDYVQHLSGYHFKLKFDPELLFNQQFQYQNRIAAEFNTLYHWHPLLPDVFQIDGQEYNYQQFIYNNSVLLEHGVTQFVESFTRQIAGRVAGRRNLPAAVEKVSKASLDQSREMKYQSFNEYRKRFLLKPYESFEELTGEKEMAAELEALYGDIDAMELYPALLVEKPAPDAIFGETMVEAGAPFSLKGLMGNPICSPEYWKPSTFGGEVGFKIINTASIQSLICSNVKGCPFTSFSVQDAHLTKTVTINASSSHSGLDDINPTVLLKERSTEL
Experimental: as §1
Cyclooxygenase-2, also known as prostaglandin H synthetase-2, catalyzes the rate- limiting step in the synthesis of inflammatory prostaglandins. In this reaction cyclooxygenase-2 catalyzes the oxygenation of unesterified precursors to form cyclic endoperoxide derivatives, including prostaglandin H. Briefly, cyclooxygenase-2 from sheep placenta, 14 μg/assay tube, is incubated with arachidonic acid (500 μM) for 1.5 minutes at 27° C. in the absence or presence of test compounds according to the methods of A. T. Evans, et al., Biochem Pharm. […] Res. Comm. […] Compounds are screened at 300 μM.

[3] = biological target: T3, 5-Lipoxygenase (crude enzyme preparation from rat basophilic leukemia cells, RBL-1) (Rattus norvegicus, UniProt P12527); assay: 5-Lipoxygenase screen (5-LO), 5-HETE by RIA; assay type: biochemical; conditions: for inhibition at 30 µM: read-out: 5-LO percent inhibition; for inhibition at 1 µM: read-out: Percent inhibition of 5-LO, test conc. 1 μM (Table II)
T3 construct: crude enzyme preparation from rat basophilic leukemia cells (RBL-1); endogenous in cells; host or cells: rat basophilic leukemia cells (RBL-1)
T3 sequence (P12527 1-673): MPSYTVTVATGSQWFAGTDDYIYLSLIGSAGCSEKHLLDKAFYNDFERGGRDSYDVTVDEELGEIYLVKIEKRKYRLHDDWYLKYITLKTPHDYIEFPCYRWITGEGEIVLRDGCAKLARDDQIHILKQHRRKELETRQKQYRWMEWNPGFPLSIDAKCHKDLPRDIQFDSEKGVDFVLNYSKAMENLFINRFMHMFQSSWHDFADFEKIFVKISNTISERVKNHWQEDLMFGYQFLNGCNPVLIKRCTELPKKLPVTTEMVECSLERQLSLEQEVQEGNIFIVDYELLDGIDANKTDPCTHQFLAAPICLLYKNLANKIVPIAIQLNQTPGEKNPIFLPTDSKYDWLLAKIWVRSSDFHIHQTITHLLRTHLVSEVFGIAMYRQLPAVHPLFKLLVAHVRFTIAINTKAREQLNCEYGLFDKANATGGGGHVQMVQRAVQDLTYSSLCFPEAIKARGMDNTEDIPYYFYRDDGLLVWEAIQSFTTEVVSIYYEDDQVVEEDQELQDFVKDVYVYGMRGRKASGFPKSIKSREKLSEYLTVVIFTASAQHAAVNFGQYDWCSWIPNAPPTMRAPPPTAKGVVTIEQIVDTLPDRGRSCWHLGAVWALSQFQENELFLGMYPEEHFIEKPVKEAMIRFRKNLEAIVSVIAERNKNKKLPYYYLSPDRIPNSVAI
Experimental: as §1
5-Lipoxygenase catalyzes the oxidative metabolism of arachidonic acid to […] (5-HETE), the initial reaction leading to the formation of the leukotrienes. Briefly, the testing procedure utilizes a crude enzyme preparation from rat basophilic leukemia cells (RBL-1) according to the methods of T. Shimuzu et al. Pro. […] Test compounds are pre-incubated with the enzyme preparation for 5 minutes at room temperature and the reaction is initiated by the addition of arachidonic acid. Following an 8 minute incubation at room temperature, the reaction is terminated by the addition of citric acid and concentrations of 5-HETE are determined by RIA. Compounds are screened at 30 μM.

[4] = system: Lipid peroxidation (rat liver microsomes); assay: Lipid peroxidation screen (LPO), CCl4-induced, liver microsomes; assay type: biochemical; conditions: 300 μM
Experimental: as §1
Lipid peroxidation is a consequence of various stimuli, including reactive free radicals. Polyunsaturated fatty acids associated with plasma membranes are degraded due to enzymatic induction by reactive agents such as CCl4, leading to cellular damage. Briefly, microsomes are prepared from rat livers and the protein concentration is determined according to the method of D. Mansuy et al., Biochem. Biophys. Res. Comm. 135:1015-1021(1986). A reaction mixture consisting of 2 mg of the microsomal preparation, an NADPH generating system, 20 mM CCl4 and test compound are incubated for 12 minutes at 37° C. The reaction is terminated by the addition of a mixture of thiobarbituric acid and trichloroacetic acid. The absorbance is read at 535 nm and is proportional to the concentration of malondialdehyde. Compounds are screened at 300 μM.

[5] = system: Nuclear Factor-kappa B (NF-κB); assay: NF-κB lacZ (κB-Z) reporter assay in transfected Jurkat cells stimulated with A23187 and PMA; assay type: cell-based, human; conditions: Homo sapiens; 10 μM; κB-Z Jurkat cells, A23187 and PMA (Table III); read-out: NF-κB percent inhibition
Experimental: The human T lymphoid cell line Jurkat was transfected with a response element lacZ reporter in which transcription of the β-galactosidase gene is directed by the binding site for the NF-κB transcription factor. […] At the end of the incubation, the cells are spun down and resuspended in the buffer and FDG (fluorescein di-β-D-galactopyranoside) solution. The covered plates are further incubated in the dark for 16 hours at 25° C. […] Compounds were screened at 10 μM.

Row | Compound | inhibition at 1 µM (NF-κB; 6 h, read-out: % Inhibition (NF-κB nuclear translocation)) [%] | COX-1 percent inhibition [1] [%] | inhibition at 300 µM [2] [%] | inhibition at 30 µM [3] [%] | inhibition at 1 µM [3] [%] | LPO percent inhibition [4] [%] | inhibition at 10 µM [5] [%] | inhibition at 0.03 µM (NF-κB; 30 nM, LPS 1 μg/ml, NR8383 cells, 6 hours) [%]
1 | C[C@@H]1C[C@H]2[C@@H]3CCC4=CC(=O)C=C[C@]4(C)[C@@]3(F)[C@@H](O)C[C@]2(C)[C@@]1(O)C(=O)CO [Dexamethasone] | 60 |  |  |  |  |  |  | 
2 | O=C1OC(c2ccccc2)(c2ccccc2)C(O)=C1O [Example 8, 3,4-Dihydroxy-5,5-diphenyl-2(5H)-furanone] |  | 15 | 17 | 94 | 15 | 70 | 33 | 
3 | CCCC1(c2ccc(CC(C)C)cc2)OC(=O)C(O)=C1O (stereo not shown) [Example 9, 3,4-Dihydroxy-5-(4-isobutylphenyl)-5-(1-propyl)-2(5H)-furanone] |  | 25 | 19 | 82 | 40 | 79 | 26 | 
4 | CC(C)Cc1ccc(C2(c3ccccc3)OC(=O)C(O)=C2O)cc1 (stereo not shown) [Example 10, 3,4-Dihydroxy-5-(4-isobutylphenyl)-5-phenyl-2(5H)-furanone] |  | 43 | 34 | 106 | 64 | 89 | 16 | 
5 | C[C@@]1(c2ccc(-c3ccccc3)cc2)OC(=O)C(O)=C1O [Example 11, (S)-(+)-5-[(1,1'-Biphenyl)-4-yl]-3,4-dihydroxy-5-methyl-2(5H)-furanone] |  | 34 | 10 | 101 | 59 | 71 | 72 | 
6 | C[C@]1(c2ccc(-c3ccccc3)cc2)OC(=O)C(O)=C1O [Example 12, (R)-(-)-5-[(1,1'-Biphenyl)-4-yl]-3,4-dihydroxy-5-methyl-2(5H)-furanone] |  | 10 | 12 | 101 | 60 | 62 | 56 | 
7 | CC(C)Cc1ccc([C@@]2(C)OC(=O)C(O)=C2O)cc1 [Example 13, (R)-(-)-3,4-Dihydroxy-5-methyl-5-[4-(2-methylpropyl)phenyl]-2(5H)-furanone] |  | 12 | 14 | 102 | 59 | 76 | 49 | 
8 | CC(C)Cc1ccc([C@]2(C)OC(=O)C(O)=C2O)cc1 [Example 14, (S)-(+)-3,4-Dihydroxy-5-methyl-5-[4-(2-methylpropyl)phenyl]-2(5H)-furanone] |  | 12 | 18 | 96 | 50 | 66 | 60 | 
9 | O=C1OC(CCSc2nc(-c3ccccc3)c(-c3ccccc3)o2)C(O)=C1O (stereo not shown) [Example 24, 3,4-Dihydroxy-5-[2-(4,5-diphenyl-1,3-oxazole-2-thio)ethyl]-2(5H)-furanone] |  | 76 | 68 | 113 | 71 | 78 | 44 | 
10 | O=C1OC(CCC#Cc2ccc3ccccc3c2)C(O)=C1O (stereo not shown) [Example 32, 3,4-Dihydroxy-5-[4-(2-naphthyl)-3-butynyl]-2(5H)-furanone] |  | 34 | 23 | 98 | 66 | 75 |  | 90
